US20210387990A1, “METHOD FOR PRODUCING DIMETHOXYBENZENE COMPOUND” (TAIHO PHARMACEUTICAL CO., LTD., priority 2018, published 2021)

Test: solubility in solvents
Type: physicochemical
Conditions: in water, highly water-soluble organic solvents, and highly fat-soluble organic solvents; free form

solubility: easily soluble
SMILES: COc1cc(C#Cc2nn([C@H]3CCNC3)c3ncnc(N)c23)cc(OC)c1 [compound B, (S)-3-((3,5-dimethoxyphenyl)ethynyl)-1-(pyrrolidin-3-yl)-1H-pyrazolo[3,4-d]pyrimidin-4-amine]
